Assay results reported in patent US20240157358A1, “BIOSENSING SYSTEM AND METHOD FOR IN-SITU DETERMINATION OF METASTASIS IN A SAMPLE” (City University of Hong Kong, priority 2022, published 2024).

System: C. elegans
Experiment: C. elegans chemotaxis assay in the microfluidic biosensor
Format: in vivo, Caenorhabditis elegans
Settings: for nematode chemotaxis score: single substance at lower concentrations, corresponding to metastatic cancer, heat maps FIGS. 7C and 7D; for CIPBS level (chemotaxis index relative to PBS): CI level of PBS buffer standards defined as 1, FIG. 3B
Protocol: It was cultured in the OP50, a strain of Escherichia coli used to maintain C. elegans cultures, with nematode growth media (NGM) plate. Before each biosensing assay, the viability of C. elegans was assessed by probing with an inoculation needle.
All materials required for performing biosensing assay in the present biosensing system should be kept at room temperature before loading C. elegans into the biosensor to maintain their viability. Briefly, medium supernatants at −80° C. and biosensor initially stored in a 4° C. freezer were thawed at room temperature. Adult C. elegans were collected in 1.5 mL tubes and washed twice with phosphate-buffered saline (PBS) buffer (Gibco, Waltham, MA, USA) before assay. All clinical samples to be tested were transported at room temperature, and the biosensing assay should be completed within 4 hours from the time of collection. The clinical samples should be mixed well before loading, and about 1 ml of the sample was taken into a 1.5 ml tube for each biosensing assay. The remaining samples could be sealed and stored at −80° C. for further use.
During each biosensing assay, approximately 50-100 μl of PBS containing 100 C. elegans was gently pipetted into the middle of the second layer where the organism loading region is disposed without compromising the viability of C. elegans and disrupting the integrity of the NGM agar, thereby increasing the reliability of the biosensing assay results. Once the C. elegans were settled, the pressure pump was started immediately to flow the test samples, comparative sample and/or negative control to the corresponding bio-incubation chambers from the fluid inlets at the first layer and through different fluid channels to reach the second layer without damaging the NGM agar integrity. In certain embodiments, an optimal flow rate of the fluid applied to the biosensor is about 0.5 mL/min. […] By this optimal flow rate, all fluid channels can be primed in 1 min and about 10 to 100 μl droplets can be formed at each fluid outlet of the fluid channels. Because of that, the volume of the test samples applied in each fluid inlet at each round of biosensing assay can be less than 1 mL. […]
To standardize the quantitative readouts, a chemotaxis index (CI) relative to the CI measured from PBS (CIPBS) was derived by the following Equation:
The CIPBS level readouts were evaluated with the present biosensing system using a range of glutamate concentration levels that included concentrations detected from MCF-7 and MDA-MB-231 clusters (0.02 mg/ml, 0.04 mg/ml, 0.06 mg/ml, 0.08 mg/ml, and 0.1 mg/ml) (FIG. 3A). CI level readouts were modified for parallel comparison of all concentrations, with the CI level obtained from PBS buffer standards defined as 1.

`O=C(O)[C@@H]1CCCN1` [L-proline] was tested, and the nematode chemotaxis score was “around 6”.
`N[C@@H](CCC(=O)O)C(=O)O` [glutamate] was tested, and the “CIPBS level (chemotaxis index relative to PBS)” value (glutamate concentration 0.02 mg/ml) was 3.6±0.03 and the “CIPBS level (chemotaxis index relative to PBS)” value (glutamate concentration 0.1 mg/ml (highest tested)) was 1.1±0.04.
In the case of `NC(N)=O` [urea], the nematode chemotaxis score is reported as “around 6”.
